Data published in patent publication US10934282B2, “Heteroaromatic modulators of the retinoid-related orphan receptor gamma” (LEO PHARMA A/S, priority 2016, dated 2021).

How the values were obtained:
[1] = molecular target: T1, human RORgt nuclear receptor (RORgT ligand binding domain protein) (Homo sapiens, UniProt P51449); assay: ROR-gamma binding assay (Scintillation Proximity Assay, displacement of [3H]-25-hydroxycholesterol); conditions: EC50, SPA, 15 nM [3H]-25-Hydroxycholesterol, RORgT LBD 12 nM
T1 construct: purchased Proteros Biostructures GmbH
T1 sequence (P51449 with tags, fused parts or gaps): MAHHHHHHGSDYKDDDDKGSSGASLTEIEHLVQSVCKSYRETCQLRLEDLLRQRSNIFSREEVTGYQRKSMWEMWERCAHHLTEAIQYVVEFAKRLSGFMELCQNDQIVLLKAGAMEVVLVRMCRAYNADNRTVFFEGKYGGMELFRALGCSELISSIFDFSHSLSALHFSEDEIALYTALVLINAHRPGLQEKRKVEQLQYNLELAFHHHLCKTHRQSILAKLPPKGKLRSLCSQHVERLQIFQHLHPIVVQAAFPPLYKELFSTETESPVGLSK
Protocol: This assay is used to evaluate the binding affinity of compounds to the ligand-binding pocket of the human RORgt nuclear receptor based on displacement of a radio-ligand. The EC50 values are calculated using a four parameter fit. Compounds binding with high affinity to RORgt will have low EC50 values.
The assay is a Scintillation Proximity Assay (SPA) that involves competition between an unlabeled test compound and tritium-labeled 25-hydroxycholesterol for binding to RORgT ligand binding domain (LBD) protein immobilized on the surface of SPA beads. These beads contain a scintillant that emits light if excited by a radioactive particle, and this light is detected using a scintillation counter. In this assay, tritium-labelled 25-hydroxycholesterol is used as radiotracer.
400 nL of titrated test and reference compounds in DMSO were transferred by the Echo liquid handling system to a 384-well assay plate followed by addition of 5 μL [3H]-25-Hydroxycholesterol (Perkin Elmer) and 35 μL diluted RORgT LBD protein with the following amino acid sequence (HIS-FLG-tag): MAHHHHHHGSDYKDDDDKGSSGASLTEIEHLVQSVCKSYRETCQLRLEDLLRQRSNIFSREEVTGYQRKSMWEMWERCAHHLTEAIQYVVEFAKRLSGFMELCQNDQIVLLKAGAMEVVLVRMCRAYNADNRTVFFEGKYGGMELFRALGCSELISSIFDFSHSLSALHFSEDEIALYTALVLINAHRPGLQEKRKVEQLQYNLELAFHHHLCKTHRQSILAKLPPKGKLRSLCSQHVERLQIFQHLHPIVVQAAFPPLYKELFSTETESPVGLSK (SEQ ID NO: 1) (Purchased from Proteros Biostructures GmbH). After 30 min of preincubation, 40 μL of HIS-TAG PVT SPA beads (Perkin Elmer) were added. The plates were then incubated for minimum 4 hours at room temperature in darkness before measuring the SPA signal using a MicroBeta plate scintillation counter. Final assay conditions were: 50 mM HEPES pH 7.4, 150 mM NaCl, 5 mM MgCl2, 0.1% BSA, 4 μg/well HIS-TAG PVT SPA Beads, 30 ng/well RORgT LBD (equal to a final concentration of 12 nM), 15 nM [^3H]-25-Hydroxycholesterol, 0.5% DMSO and varying concentrations of test compound in a total volume of 80 μL/well. EC50 values were calculated using a 4-parameter non-linear regression curve-fitting model.

[2] = tested on: IL-17A in Human peripheral mononuclear cells; assay: Human PBMC IL-17A assay; format: cell-based; conditions: 72 h, EC50, antiCD3/antiCD28-coated beads, 3 days, alpha-LISA
Protocol: This assay measures the IL-17A inhibitory potential of test compounds in Human peripheral mononuclear cells.
Peripheral blood mononuclear cells (PBMC) were isolated from human buffy coats using density grade centrifugation (Lymphoprep, Medinor), washed twice in PBS and frozen at −150° C. for later use.
Test compounds were diluted in DMSO and 70 nL of titrated test and reference compounds were transferred by the Echo liquid handling system to a 384-well assay plate in to give a final concentration of 0.1% DMSO in the wells.
The PBMC were thawed, washed and suspended in RPMI-1640 supplemented with pen/strep, glutamax and 10% bovine calf serum. The cells were mixed with antiCD3/antiCD28-coated beads (1 cells pr one bead) (Milteney T-cell expansion kit), and immediately thereafter the cells were pipetted to the plate at 130,000c/well. The plate was incubated for 3 days in humidified air/CO2 (95%/5%) On day 3 the level of IL-17A in the culture supernatant is measured using alpha-LISA kit (Perkin Elmer). Cell viability was measured by adding 6 uL pr well Prestoblue© (Life Technologies) and incubating for 2 hours followed by fluorescent measurement (Ex535/Em615). EC50 values were calculated using a 4-parameter non-linear regression curve-fitting model. Donors may be pre-screened in order to select PBMC with a high secretion of IL-17A.

[3] = tested on: IL-17A levels in human peripheral blood; assay: tissue or blood; format: cell-based; conditions: 72 h, read-out: Human Whole blood IL-17A (nM)

Structure (SMILES) | EC50 [1] | EC50 [2] | EC50 [3]
Cc1c(CN2CCN(C(=O)c3ccccc3)[C@@H](C)C2)cc(Cl)cc1Nc1nnc(C2(O)CC2)o1 [Example 6, [(2S)-4-[[5-chloro-3-[[5-(1-hydroxycyclopropyl)-1,3,4-oxadiazol-2-yl]amino]-2-methyl-phenyl]methyl]-2-methyl-piperazin-1-yl]-phenyl-methanone] | 31.7 nM | 234 nM | 504 nM
Cc1c(CN2CCN(C(=O)c3ccccc3)[C@@H](C)C2)cc(Cl)cc1Nc1nnc(CCC#N)o1 [Example 7, 3-[5-[3-[[(3S)-4-benzoyl-3-methyl-piperazin-1-yl]methyl]-5-chloro-2-methyl-anilino]-1,3,4-oxadiazol-2-yl]propanenitrile] | 33 nM | 49.8 nM | 219 nM
CCC(F)(F)C(=O)N1CCN(Cc2cc(Cl)cc(Nc3nnc(COC)o3)c2C)C[C@@H]1C [Example 8, 1-[(2S)-4-[[5-chloro-3-[[5-(methoxymethyl)-1,3,4-oxadiazol-2-yl]amino]-2-methyl-phenyl]methyl]-2-methyl-piperazin-1-yl]-2,2-difluoro-butan-1-one] | 69 nM | 251 nM | 497 nM
COCc1nnc(Nc2cc(Cl)cc(CN3CCN(C(=O)c4ccccc4F)[C@@H](C)C3)c2C)o1 [Example 9, [(2S)-4-[[5-chloro-3-[[5-(methoxymethyl)-1,3,4-oxadiazol-2-yl]amino]-2-methyl-phenyl]methyl]-2-methyl-piperazin-1-yl]-(2-fluorophenyl)methanone] | 23.5 nM | 99.3 nM | 254 nM
COCc1nnc(Nc2cc(Cl)cc(CN3CCN(C(=O)C4CCC(F)(F)C4)[C@@H](C)C3)c2C)o1 (stereo partly drawn) [Example 10, [(2S)-4-[[5-chloro-3-[[5-(methoxymethyl)-1,3,4-oxadiazol-2-yl]amino]-2-methyl-phenyl]methyl]-2-methyl-piperazin-1-yl]-(3,3-difluorocyclopentyl)methanone] | 45.4 nM | 173 nM | 296 nM
CC[C@H](C)C(=O)N1CCN(Cc2cc(Cl)cc(Nc3nnc(COC)o3)c2C)C[C@@H]1C [Example 11, (2S)-1-[(2S)-4-[[5-chloro-3-[[5-(methoxymethyl)-1,3,4-oxadiazol-2-yl]amino]-2-methyl-phenyl]methyl]-2-methyl-piperazin-1-yl]-2-methyl-butan-1-one] | 28.1 nM | 92.6 nM | 132 nM
COCc1nnc(Nc2cc(Cl)cc(CN3CCN(C(=O)C4CCC4)[C@@H](C)C3)c2C)o1 [Example 12, [(2S)-4-[[5-chloro-3-[[5-(methoxymethyl)-1,3,4-oxadiazol-2-yl]amino]-2-methyl-phenyl]methyl]-2-methyl-piperazin-1-yl]-cyclobutyl-methanone] | 40.4 nM | 128 nM | 302 nM
COCc1nnc(Nc2cc(Cl)cc(CN3CCN(C(=O)C4CCCC4)[C@@H](C)C3)c2C)o1 [Example 13, [(2S)-4-[[5-chloro-3-[[5-(methoxymethyl)-1,3,4-oxadiazol-2-yl]amino]-2-methyl-phenyl]methyl]-2-methyl-piperazin-1-yl]-cyclopentyl-methanone] | 14.7 nM | 48.9 nM | 112 nM
Cc1cc(CN2CCN(C(=O)C3CCC3)[C@@H](C)C2)c(C)c(Nc2nnc(C)o2)c1 [Example 14, cyclobutyl-[(2S)-4-[[2,5-dimethyl-3-[(5-methyl-1,3,4-oxadiazol-2-yl)amino]phenyl]methyl]-2-methyl-piperazin-1-yl]methanone] | 61.1 nM | 185 nM | 372 nM
Cc1cc(CN2CCN(C(=O)C3CCC3)[C@@H](C)C2)c(C)c(Nc2nnc(CC#N)o2)c1 [Example 15, 2-[5-[3-[[(3S)-4-(cyclobutanecarbonyl)-3-methyl-piperazin-1-yl]methyl]-2,5-dimethyl-anilino]-1,3,4-oxadiazol-2-yl]acetonitrile] | 63.8 nM | 101 nM | 421 nM
Cc1cc(CN2CCN(C(=O)C3CC3)[C@@H](C)C2)c(C)c(Nc2nnc(CC#N)o2)c1 [Example 16, 2-[5-[3-[[(3S)-4-(cyclopropanecarbonyl)-3-methyl-piperazin-1-yl]methyl]-2,5-dimethyl-anilino]-1,3,4-oxadiazol-2-yl]acetonitrile] | 223 nM | 237 nM | 206 nM
Cc1cc(CN2CCN(C(=O)C3CCC(F)(F)C3)[C@@H](C)C2)c(C)c(Nc2nnc(CC#N)o2)c1 (stereo partly drawn) [Example 17, 2-[5-[3-[[(3S)-4-(3,3-difluorocyclopentanecarbonyl)-3-methyl-piperazin-1-yl]methyl]-2,5-dimethyl-anilino]-1,3,4-oxadiazol-2-yl]acetonitrile] | 54.5 nM | 230 nM | 131 nM
Cc1c(CN2CCN(C(=O)C3CCCC3)[C@@H](C)C2)cc(Cl)cc1Nc1nnc(CC#N)o1 [Example 18, 2-[5-[5-chloro-3-[[4-(cyclopentanecarbonyl)-3-methyl-piperazin-1-yl]methyl]-2-methyl-anilino]-1,3,4-oxadiazol-2-yl]acetonitrile] | 21.2 nM | 69.8 nM | 203 nM
Cc1cc(CN2CCN(C(=O)C3CCC3)[C@@H](C)C2)c(C)c(Nc2nnc([C@@H](C)O)o2)c1 [Example 19, cyclobutyl-[(2S)-4-[[3-[[5-[(1R)-1-hydroxyethyl]-1,3,4-oxadiazol-2-yl]amino]-2,5-dimethyl-phenyl]methyl]-2-methyl-piperazin-1-yl]methanone] | 92.3 nM | 117 nM | 216 nM
Cc1cc(CN2CCN(C(=O)C3CCC3)[C@@H](C)C2)c(C)c(Nc2nnc([C@H](C)O)o2)c1 [Example 20, cyclobutyl-[(2S)-4-[[3-[[5-[(1S)-1-hydroxyethyl]-1,3,4-oxadiazol-2-yl]amino]-2,5-dimethyl-phenyl]methyl]-2-methyl-piperazin-1-yl]methanone] | 113 nM | 189 nM | 259 nM
CCC(F)(F)C(=O)N1CCN(Cc2cc(C)cc(Nc3nnc([C@@H](C)O)o3)c2C)C[C@@H]1C [Example 21, 2,2-difluoro-1-[(2S)-4-[[3-[[5-[(1R)-1-hydroxyethyl]-1,3,4-oxadiazol-2-yl]amino]-2,5-dimethyl-phenyl]methyl]-2-methyl-piperazin-1-yl]butan-1-one] | 71.7 nM | 180 nM | 251 nM
Cc1cc(CN2CCN(C(=O)C3CC3)[C@@H](C)C2)c(C)c(Nc2nnc([C@@H](C)O)o2)c1 [Example 22, cyclopropyl-[(2S)-4-[[3-[[5-[(1R)-1-hydroxyethyl]-1,3,4-oxadiazol-2-yl]amino]-2,5-dimethyl-phenyl]methyl]-2-methyl-piperazin-1-yl]methanone] | 169 nM | 254 nM | 355 nM
